In patent US8710068B2, “Method of treating cancer using a survivin inhibitor” (The Trustees Of The University Of Pennsylvania, priority 2009, dated 2014):

Assays:
HCT116(p53+/+) cells = assay: MTT viability assay, HCT116(p53+/+); format: cell-based; conditions: 48 hours
Method: FIG. 4 illustrates the effects of S12 on proliferation of p53-positive and p53-negative cancer cells. (A) HCT116(p53+/+) or HCT116(p53−/−) cells were treated with DMSO or S12 at the indicated concentrations for 48 hours. The percentage of viable cells was evaluated by MTT assay.
Thus, inhibition of cell proliferation by S12 is independent of p53 status.

[1] = Toxicity observation in xenograft mice; format: in vivo; conditions: 5 to 50 mg/kg, xenograft studies
Sur-V89Y = target: T1, Sur-V89Y (Homo sapiens, UniProt O15392, V89Y); assay: ITC binding to Survivin mutant V89Y; conditions: in words
T1 construct: made in house; host or cells: bacteria
T1 sequence (O15392 whole entry V89Y): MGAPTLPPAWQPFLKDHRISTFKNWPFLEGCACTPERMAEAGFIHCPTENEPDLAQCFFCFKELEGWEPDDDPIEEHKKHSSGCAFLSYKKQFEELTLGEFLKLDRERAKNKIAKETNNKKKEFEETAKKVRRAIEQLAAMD
Method: (§1) FIG. 5 illustrates an analysis of S12-Survivin binding with isothermal titration calorimetry (ITC). Single-site point mutagenesis was performed to create the Survivin mutants F86A and V89Y. The native and the mutant proteins were produced and purified from bacteria.
(§2) In order to examine the specificity of the binding, we generated point mutations on the Survivin protein at the site presumably targeted by S12. The two mutations were substitutions of phenylalanine 86 with alanine (F86A) and valine 89 with tyrosine (V89Y). These two altered sites are also adjacent to the interface involved in dimerization of the Survivin protein. Based on structural analyses, we predict that alterations of either of these two amino acid residues may abolish the binding of S12 without affecting the overall structure of the Survivin protein.

HeLa cells [2] = assay: Cell cycle analysis of DNA content by PI staining and FACS, HeLa; format: cell-based, human; conditions: HeLa, FACS DNA content
Method: FIG. 7 illustrates the effect of S2 or S12 on cell cycle progression. HeLa cells were treated with S2, S12, S10, S1 (control compound), or DMSO (control), propidium iodide (PI) staining and FACS analysis were performed to quantify the DNA content of cells.
FIG. 9 illustrates the effect of S12 on mitosis. (A) HeLa cells were treated with S12, S2 or DMSO for 15 hours. The cells were then fixed and subjected to immunostaining using antibodies specific for Aurora B (green) and Survivin (red). DNA was stained with DAPI. Chromosome misalignment is indicated with the arrowheads. (B) Percentage of S12-treated cells in mitosis, in metaphase, in anaphase/telophase, or with misaligned chromosomes. (C) Percentage of S2-treated cells in mitosis, in metaphase, in anaphase/telophase, or with misaligned chromosomes. (D) HeLa cells were treated with S12 (10 μg/ml) or DMSO (control) for 15 hours. Cells were examined by PI staining of DNA content by FACS analysis.
FIG. 17 illustrates (A) FACS analysis of DNA content of HeLa cells treated with SBDO3. Note the accumulation of cells at the G2/M stage. Cell death was also observed (sub-G1 population); (B) Immuno-fluorescence microscopy analysis of cell treated with SBDO3. Note that the microtubule bundles of the mitotic spindle are disorganized. The chromosomes are not aligned properly and cells cannot go through metaphase.
The candidate Survivin-targeting molecules identified by the virtual screen were examined for the ability to inhibit cell proliferation and mitosis. HeLa cells were treated with the compounds at various concentrations for 15 hours followed by examination of the DNA content by FACS analysis. […] The effects of S2 inflicted on cell proliferation and viability are consistent with the anticipated outcome caused by the ablation of Survivin functions. We have extended these studies to test a number of molecules that are structurally similar to S2, including S10, S11, S12 and S13. […] S12 affected cell proliferation and viability, consistent with the anticipated outcome caused by ablation of Survivin functions.
We analyzed distribution of cells in the different stages of the cell cycle by FACS. […] In addition, the inhibitory effect of SBDO3 is dose dependent (FIG. 17A).
We also conducted immuno-fluorescence studies on SBDO3 treated HeLa cells.

Survivin protein = target: T2, Survivin protein (Homo sapiens, UniProt O15392); assay: Isothermal titration calorimetry (ITC) binding to native Survivin
T2 construct: made in house; host or cells: bacteria
T2 sequence (O15392 whole entry): as the sequence (O15392 whole entry V89Y) above, with Y89V counted along it
Method: as §1
FIG. 16 illustrates the isothermal titration calorimetry profile of the binding of SBDO3 to the Survivin homodimer.
as §2
We tested the binding of the Survivin target molecules to Survivin by isothermal titration calorimetry.

HeLa cells [3] = assay: BrdU incorporation DNA synthesis assay (FACS), HeLa; format: cell-based, human; conditions: 4 hours treatment then one-hour BrdU
Method: BrdU-labeled cells were analyzed by FACS. The percentage of BrdU-positive cells is indicated.
HeLa cells were treated with S12, aphidicolin, or DMSO (control) for 4 hours. BrdU was then added to the medium followed by an additional incubation of 1 hour. The amount of BrdU was examined by staining with anti-BrdU antibody and FACS analysis. The percentage of BrdU-positive cells is shown.
To establish the specificity of the biological activities of the Survivin targeting we examined whether the compounds affect DNA synthesis. HeLa cells were treated with Aphidicolin, S2 or DMSO for 4 hours, followed by one-hour incubation with BrdU. The cells were then collected, fixed and stained with FITC-labeled anti-BrdU antibody.

AsPC1 tumor xenograft [4] = assay: AsPC1 mouse xenograft tumor growth; format: in vivo, athymic mice
Method: FIG. 13 illustrates S12 inhibition of tumor growth in vivo. (A) AsPC1 cells were injected subcutaneously into the mid-dorsum of athymic mice. S12 was administered 10 days after the injection at the concentration of 5 mg/kg (blue triangles; middle line on the graph, n=4) or 15 mg/kg (red triangles; lower line on the graph; n=3). The control group was treated with PBS containing DMSO only (black square; upper line on the graph). The results represent the mean tumor volume+/− standard error (P<0.05). (B) In a second set of studies S12 was administered at the concentration of 15 mg/kg or 50 mg/kg (n=3). In both studies the control group was treated with PBS containing DMSO only. The results represented the mean tumor volume+/− standard error.
The effect of S12 on tumor growth was examined using a mouse xenograft model. The human pancreatic cell line AsPC1 was injected subcutaneously into athymic mice and formed palpable tumors within 10 days. S12 was then administered at the concentration of 5 mg/kg or 15 mg/kg three times per week until the end point of the experiment. The size of the tumors was monitored for up to 48 days after the initial grafting.

AsPC1 tumor xenograft [5] = assay: Immunohistochemistry of tumor xenograft (Ki67, TUNEL); format: in vivo, athymic mice
Text: FIG. 14 illustrates the immunohistochemistry analysis of tumor xenograft following treatment with S12 or PBS.
We performed immunohistochemistry studies to analyze the cellular effects of S12 treatment on the tumors. […] In addition, we examined apoptosis using the TUNEL assay.

With O=C(CC1(O)C(=O)Nc2ccc(Br)cc21)c1ccc2c(c1)OCO2 (stereo not shown) [S12] the “reduction of cell viability” value (HCT116(p53+/+) cells) was “equally effective at reducing cell viability”, the “toxic effects to the mice” value [1] was “no overtly toxic effects” and the “binding to mutant Sur-V89Y” value (Sur-V89Y) was “did not bind”. For the same molecule, the “accumulation of cells in the G2/M stage” value (HeLa cells [2]; 15 hours) was “accumulation of cells in the G2/M stage”, the “sub-G1 population (cell death)” value (HeLa cells [2]) was “increase of cells in the sub-G1 population” and the “binding to the Survivin protein” value (Survivin protein; ITC, in words) was “can bind to the Survivin protein”. For the same molecule, the “N (ITC stoichiometry)” value (Survivin protein; isothermal titration calorimetry, native Survivin) was 1.00, the Kd (Survivin protein; isothermal titration calorimetry, native Survivin, read-out: K (ITC binding constant) (converted)) was 224 nM and the “DNA synthesis (BrdU incorporation)” value (HeLa cells [3]) was “did not block DNA synthesis”. The tumor volume (AsPC1 tumor xenograft [4]; 5 mg/kg or 15 mg/kg three times per week, up to 48 days) was “significantly lowered the tumor volume in a dose-dependent manner”, the tumor regression (AsPC1 tumor xenograft [4]; dose raised to 50 mg/kg) was “enhancement of tumor regression” and the “proliferation of tumor cells (Ki67)” value (AsPC1 tumor xenograft [5]; immunohistochemistry of tumor xenograft) was “drastically reduced proliferation of tumor cells”. For the same molecule, the “apoptosis in the tumors (TUNEL assay)” value (AsPC1 tumor xenograft [5]; tumor xenograft) was “increased the levels of apoptosis”.
